According to article PMC8222254, “Self-assembly of an anion receptor with metal-dependent kinase inhibition and potent in vitro anti-cancer properties” (Nature Communications, 2021):

What was measured:
[1] = target: recombinant human AMPK (pT172 AMPKα1, pS108 AMPKβ1) (Homo sapiens, UniProt Q13131); test: In vitro phosphatase assay with recombinant kinase, immunoblotting; format: biochemical; settings: 50 μM complex, 4 h, with ATP
Procedure: 800 ng of purified recombinant human AMPK (α1β2γ1) or Src kinase (MRC PPU, International Centre for Kinase Profiling, University of Dundee) was incubated with 50 μM [L2Cu3]^6+, [L2Zn3]^6+, or vehicle control in 50 mM Tris HCl pH 7.5 containing 50 μM ATP for 4 h at 37 °C. For [L2Zn3]^6+ time course and concentration titration experiments, 800 ng recombinant human AMPK was used (α1β2γ1 AMPK isoform for pT172 AMPKα1 detection or α2β1γ1 AMPK isoform for pS108 AMPKβ1 detection). For evaluation of ATP dependency and influence of AMP, 50 µM ATP was replaced with 50 µM AMP or omitted. Reactions were stopped by addition of Laemmli’s buffer (Biorad) to 1x and heating at 95 °C for 5 min before analysis by SDS PAGE and immunoblotting for detection of specific phosphorylated amino acids of AMPK and Src proteins.
Protein lysates and recombinant proteins were resolved on 15% SDS polyacrylamide gels. Proteins were electroblotted onto nitrocellulose membrane by wet transfer in 1xTris Glycine buffer (Biorad) at 35 mA overnight at room temperature. After blocking of membranes, these were incubated with primary antibody overnight at 4 °C before addition of rabbit or mouse secondary antibody (HRP-conjugated; 1:5000, Dako P0448 or P0260) for 1 h at room temperature and development of blots by enhanced chemiluminescence. Primary antibodies were: anti-Src (total) (Cell Signalling Technology #2123 1:1000), anti-phosphorylated Src (Y527) (Cell Signalling Technology #21055 1:1000), anti-phosphorylated Src (Y416) (Cell Signalling Technology #69435 1:1000), anti-AMPKα (total) (Cell Signalling Technology #2532 1:1000), anti-phosphorylated AMPKα (T172) (Cell Signalling Technology #2535 1:1000), anti-AMPKβ1 (total) (Cell Signalling Technology #4150 1:1000), anti-phosphorylated AMPKβ1 (S108) (abcam ab156890 1:500), anti-phospho-Tyr (pan) (Cell Signalling Technology #8954 1:2000), anti-p53 (Santa Cruz, DO-1 clone, 1:1000,), anti-phosphorylated LDH-A (Y10) (Cell Signalling Technology #8176 1:1000), anti-LDH-A/B (total) (abcam ab134187 1:5000), anti-β-actin (Merck MAB1501, 1:40,000). Quantification of signals was performed by densitometry using Image J software. Uncropped and unprocessed scans are provided in the Source Data file.

[2] = target: T1, recombinant human AMPK (α1β2γ1) (Homo sapiens, UniProt Q13131); test: Substrate competition assay (ADP-Glo Kinase Assay); format: biochemical
T1 construct: purchased Promega

HCT116 p53+/+ [3] = test: Quantification of cellular ATP levels (CellTiterGlo); format: cell-based, human; settings: for ATP levels relative to vehicle control: 20h; for % ATP Activity (Average): HCT116 p53+/+ cells, average of runs, relative to 0 µM = 100
Procedure: ARPE-19 and HCT116 p53^+/+ cells were seeded in 96-well opaque plates at a density of 7500 cells/well. 24 h after seeding, cells were treated for 20 h with a range of concentrations of [[…]]^6+, [L2Zn3]^6+, [[…]]^6+, or vehicle control (2-fold serial dilution from 100-3.125 μM) before determining total cellular ATP content by quantification of luminescence (CellTiterGlo® assay, Promega). ATP levels were normalised relative to levels in vehicle control-treated cells.

[4] = UV-Vis study of hydrolysis of 4-nitrophenyl phosphate; settings: HEPES pH 7.4 / DMSO, blank 0.0129
Procedure: UV–Vis studies were carried out on a Cary 60 UV–Vis spectrophotometer with Thermo cycler attachment and the wavelength range of 800–250 nm was scanned every hour for 43 h whilst the solution was heated at a constant temperature of 37 °C. Progress of hydrolysation of 4-nitrophenyl phosphate to 4-nitrophenol was measured by monitoring the increase in absorption at the wavelength of 400 nm (typical for 4-nitrophenol). HEPES buffer was prepared at pH 7.4. Solutions were prepared by dissolving the ligand L (3.1 mg, 0.005 mmol) and the relevant metal salt (1.5 equivalents with respect to ligand) in DMSO (5 mL). 4-nitrophenyl phosphate (18.6 mg, 0.050 mmol) was dissolved in HEPES buffer (~10 mL, 60 mmol). These solutions were then combined and made up volumetrically to 50 mL with HEPES buffer. Where required Bu4NH2PO4 (0.5 equivalents with respect to ligand) was added to the HEPES buffer.
5. UV-Vis studies of the hydrolysis of disodium 4-nitrophenylphosphate.
UV-Vis studies were carried out on a Cary 60 UV-Vis spectrophotometer with Thermo cycler attachment and the wavelength range of 800 – 250 nm was scanned every hour for 43 hours whilst the solution was heated at a constant temperature of 37 °C. Progress of hydrolysation of 4-nitrophenyl phosphate to 4-nitrophenol was measured by monitoring the increase in absorption at the wavelength of 400 nm (typical for 4-nitrophenol). HEPES buffer was prepared at pH 7.4.
Solutions were prepared by dissolving the ligand L (3.1 mg, 0.005 mmol) and the relevant metal salt (1.5 equiv w.r.t. ligand) in DMSO (5 mL). 4 -nitrophenyl phosphate (18.6 mg, 0.050 mmol) was dissolved in HEPES buffer (~10 mL , 60 mmol) These solutions were then combined and made up volumetrically to 50 mL with HEPES buffer.
(1.5 equiv w.r.t. ligand) in DMSO (5 mL). Tetrabutylammonium phosphate (0.84 mg, 0.0025 mmol) was dissolved in HEPES buffer (~1 mL, 60 mmol) and these solutions were combined. […]

HCT116 p53+/+ [5] = test: Confocal imaging of autophagic cells (CYTO-ID); format: cell-based, human; settings: 3.125 µM, 40 h
Procedure: Cells were seeded in Lumox chamber slides (8-well, Sarstedt) at a density of 1.25 × 10^4 cells/well (ARPE-19) or 5.625 × 10^4 cells/well (HCT116 p53^−/− and HCT116 p53^+/+). 24 h after seeding, cells were treated with 3.125 μM of [L2Cu3]^6+, [L2Zn3]^6+, [L2Mn3]^6+, or vehicle control for 40 h before removal and addition of CYTO-ID Green autophagic dye (1:500 dilution, Enzo Life Sciences) and Hoechst 3342 nuclear counter stain for 30 min at 37 °C. Media was then replaced before imaging using a Zeiss LSM880 confocal laser scanning microscope.

T1 sequence (Q13131 whole entry): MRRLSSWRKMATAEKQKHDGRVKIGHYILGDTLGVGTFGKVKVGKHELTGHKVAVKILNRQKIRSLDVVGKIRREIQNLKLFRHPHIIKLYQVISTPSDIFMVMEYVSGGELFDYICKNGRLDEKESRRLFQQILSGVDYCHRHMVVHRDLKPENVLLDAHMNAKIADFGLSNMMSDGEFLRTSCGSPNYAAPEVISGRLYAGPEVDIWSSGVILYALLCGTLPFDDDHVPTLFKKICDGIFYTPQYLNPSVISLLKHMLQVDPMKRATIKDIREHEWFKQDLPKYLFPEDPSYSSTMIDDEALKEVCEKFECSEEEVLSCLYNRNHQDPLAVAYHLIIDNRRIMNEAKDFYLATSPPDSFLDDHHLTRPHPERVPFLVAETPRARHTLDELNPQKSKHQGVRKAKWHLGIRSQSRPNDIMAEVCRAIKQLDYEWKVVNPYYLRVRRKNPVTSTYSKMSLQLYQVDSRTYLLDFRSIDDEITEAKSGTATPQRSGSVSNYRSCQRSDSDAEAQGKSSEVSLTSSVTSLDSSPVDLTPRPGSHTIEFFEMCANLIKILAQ
T1 sequence (O43741 whole entry partner): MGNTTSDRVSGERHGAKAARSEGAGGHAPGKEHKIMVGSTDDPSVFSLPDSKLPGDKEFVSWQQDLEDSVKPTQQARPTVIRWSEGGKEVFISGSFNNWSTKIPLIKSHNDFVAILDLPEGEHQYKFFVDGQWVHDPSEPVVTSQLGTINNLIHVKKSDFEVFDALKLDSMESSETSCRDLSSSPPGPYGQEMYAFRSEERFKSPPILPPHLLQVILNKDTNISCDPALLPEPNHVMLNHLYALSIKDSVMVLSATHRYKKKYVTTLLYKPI
T1 sequence (P54619 whole entry partner): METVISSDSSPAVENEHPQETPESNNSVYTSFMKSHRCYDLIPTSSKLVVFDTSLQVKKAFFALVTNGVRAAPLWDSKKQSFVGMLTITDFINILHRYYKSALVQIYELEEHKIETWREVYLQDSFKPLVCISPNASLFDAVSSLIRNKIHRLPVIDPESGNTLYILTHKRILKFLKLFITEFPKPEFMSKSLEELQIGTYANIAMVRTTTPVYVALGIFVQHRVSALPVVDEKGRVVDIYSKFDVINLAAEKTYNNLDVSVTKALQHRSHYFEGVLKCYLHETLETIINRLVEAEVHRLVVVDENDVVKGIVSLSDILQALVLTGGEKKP
recombinant human AMPK (pT172 AMPKα1, pS108 AMPKβ1), sequence (Q13131 whole entry, canonical isoform): as the sequence (Q13131 whole entry) above
recombinant human AMPK (pT172 AMPKα1, pS108 AMPKβ1), sequence (O43741 whole entry partner, canonical isoform): as the sequence (O43741 whole entry partner) above
recombinant human AMPK (pT172 AMPKα1, pS108 AMPKβ1), sequence (P54619 whole entry partner, canonical isoform): as the sequence (P54619 whole entry partner) above

Structure (SMILES)	T172P levels of AMPKα detectable by immunoblotting [1]	%AMPK Activity Remaining, Mean (data for the bars) ([2]; Substrate 0.5 mg/ml as printed) [%]	%AMPK Activity Remaining, Mean (data for the bars) ([2]; Substrate 20 mg/ml as printed) [%]	%AMPK Activity Remaining, Mean (data for the bars) ([2]; Substrate 200 mg/ml as printed) [%]	%AMPK Activity Remaining, Mean (data for the bars) ([2]; Substrate 500 mg/ml as printed) [%]	ATP levels relative to vehicle control (HCT116 p53+/+ [3]; HCT116, highest concentration of 100μM) [%]	% ATP Activity (Average) (HCT116 p53+/+ [3]; 3.125 µM complex) [%]	% ATP Activity (Average) (HCT116 p53+/+ [3]; 6.25 µM complex) [%]	% ATP Activity (Average) (HCT116 p53+/+ [3]; 12.5 µM complex) [%]	% ATP Activity (Average) (HCT116 p53+/+ [3]; 25 µM complex) [%]	% ATP Activity (Average) (HCT116 p53+/+ [3]; 50 µM complex) [%]	% ATP Activity (Average) (HCT116 p53+/+ [3]; 100 µM complex) [%]	Concentration of 4-nitrophenol after 24 hours at 37°C [4] [mM]	induction of autophagy (CYTO-ID) (HCT116 p53+/+ [5])	ATP levels relative to vehicle control (HCT116 p53+/+ [3]; HCT116 p53+/+, 6.25μM) [%]	ATP levels relative to vehicle control (HCT116 p53+/+ [3]; HCT116 p53+/+, concentrations of ≥25μM) [%]
[Cu+2].[Cu+2].[Cu+2].c1ccc(-c2csc(NCCN(CCNc3nc(-c4ccccn4)cs3)CCNc3nc(-c4ccccn4)cs3)n2)nc1.c1ccc(-c2csc(NCCN(CCNc3nc(-c4ccccn4)cs3)CCNc3nc(-c4ccccn4)cs3)n2)nc1 [[L2Cu3]6+]	significantly reduced	34.60	17.00	25.40	17.20	< 50	75.66	75.32	74.21	71.91	61.46	38.46				
[Mn+2].[Mn+2].[Mn+2].c1ccc(-c2csc(NCCN(CCNc3nc(-c4ccccn4)cs3)CCNc3nc(-c4ccccn4)cs3)n2)nc1.c1ccc(-c2csc(NCCN(CCNc3nc(-c4ccccn4)cs3)CCNc3nc(-c4ccccn4)cs3)n2)nc1 [[L2Mn3]6+]							52.15	40.82	38.17	35.09	31.21	28.58	0.1185	evident	< 50	
CC(=O)[O-].CC(=O)[O-].CC(=O)[O-].O=P([O-])([O-])[O-].[Zn+2].[Zn+2].[Zn+2].c1ccc(-c2csc(NCCN(CCNc3nc(-c4ccccn4)cs3)CCNc3nc(-c4ccccn4)cs3)n2)nc1.c1ccc(-c2csc(NCCN(CCNc3nc(-c4ccccn4)cs3)CCNc3nc(-c4ccccn4)cs3)n2)nc1 [[L2Zn3(PO4)]3+]													0.0164			
CC(=O)[O-].CC(=O)[O-].CC(=O)[O-].CC(=O)[O-].CC(=O)[O-].CC(=O)[O-].[Zn+2].[Zn+2].[Zn+2].c1ccc(-c2csc(NCCN(CCNc3nc(-c4ccccn4)cs3)CCNc3nc(-c4ccccn4)cs3)n2)nc1.c1ccc(-c2csc(NCCN(CCNc3nc(-c4ccccn4)cs3)CCNc3nc(-c4ccccn4)cs3)n2)nc1 [[L2Zn3]6+]	significantly reduced	42.90	39.40	43.70	35.80		71.75	63.36	54.43	46.16	35.67	26.26	0.0361	barely detectable		< 50
